Results published in PubChem BioAssay (NCI).
Where “and” joins values, the source holds several entries; their conditions need not be identical. Equal entries are not always repeated.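 Assay format: 96-well plates, 48-hour exposure. GI50 is the concentration that inhibits growth by half. TGI is the concentration that stops growth completely.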

Assays:
Assay in all cases: NCI tumour cell line growth inhibition, 48 h
DMS 114 small cell lung = system: DMS 114 small cell lung
M19-MEL melanoma = system: M19-MEL melanoma
DLD-1 colon = system: DLD-1 colon
XF 498 CNS = system: XF 498 CNS
HOP-18 NSCLC = system: HOP-18 NSCLC
P388/ADR leukemia = system: P388/ADR leukemia
DMS 273 small cell lung = system: DMS 273 small cell lung
P388 leukemia = system: P388 leukemia
SNB-78 CNS = system: SNB-78 CNS
SN12K1 renal = system: SN12K1 renal
LXFL 529 NSCLC = system: LXFL 529 NSCLC

Structure (SMILES)	TGI (DMS 114 small cell lung)	TGI (M19-MEL melanoma)	TGI (DLD-1 colon)	TGI (XF 498 CNS)	TGI (HOP-18 NSCLC)	TGI (P388/ADR leukemia)	TGI (DMS 273 small cell lung)	TGI (P388 leukemia)	TGI (SNB-78 CNS)	TGI (SN12K1 renal)	TGI (LXFL 529 NSCLC)	GI50 (DMS 114 small cell lung)	GI50 (M19-MEL melanoma)	GI50 (DLD-1 colon)	GI50 (HOP-18 NSCLC)	GI50 (P388/ADR leukemia)	GI50 (DMS 273 small cell lung)	GI50 (P388 leukemia)	GI50 (SNB-78 CNS)	GI50 (SN12K1 renal)
CSc1nc2c(ncn2C2OCC(O)C(O)C2O)c(=O)[nH]1 (stereo not given)	> 100 µM	> 100 µM	> 100 µM	> 100000 nM	> 100 µM	> 100 µM	> 100 µM	> 100 µM	> 100 µM	> 100 µM										
COc1cc2cc3c4c(cc(OC)c(OC)c4c2cc1OC)CCN3C(=O)OCCBr		> 100 µM	> 100 µM	> 100000 nM			> 100 µM		> 100 µM											
C=C1C(=O)C[C@@]23CCC[C@@]12CC(O)C3 (stereo not given in full)	38.3 µM	> 70.2 µM	54.8 µM	41100 nM	37.4 µM	32.4 µM	45.8 µM	25.3 µM	99 µM	39.6 µM										
COc1ccc(CC2C(=O)NC(C)C(=O)N(C)C3Cc4ccc(cc4)Oc4cc(ccc4O)CC(C(=O)NC(C)C(=O)NC(C)C(=O)N2C)N(C)C3=O)cc1 (stereo not given)		0.0192 µM	1.09 µM	22.4 nM		20.6 µM	0.0532 µM	0.0177 µM	0.0256 µM											
NC(CO)c1ccccc1 (stereo not given)	> 100 µM		> 100 µM	> 100000 nM	96.1 µM		> 100 µM		> 100 µM		> 100000 nM									
CC(=O)c1c(O)c(C)c(O)c2c1OC1=CC(=O)C(C(C)=O)C(=O)C12C (stereo not given)	29.9 µM and 58.3 µM	44.4 µM and 79.3 µM	29.9 µM and 69 µM	807 nM and 835 nM	10.6 µM and 67.2 µM	44.1 µM and 61.5 µM	11.9 µM and 22.5 µM	26.3 µM and 60.3 µM	48.6 µM and 80.4 µM	19.4 µM and 39.3 µM		6.22 µM and 18.5 µM	5.4 µM and 24.9 µM	4.9 µM and 16.1 µM	3.28 µM and 14.6 µM	5.92 µM and 20.1 µM	3.74 µM and 7.53 µM	3.74 µM and 23.8 µM	8.87 µM and 28.8 µM	4.99 µM and 14.1 µM
CCN(CC)c1ccc(C(=C2C=CC(=[N+](CC)CC)C=C2)c2ccccc2)cc1	0.208 µM	0.158 µM	0.193 µM	39.1 nM			0.134 µM		0.237 µM		115 nM									
